Measurements: the NIST ThermoML archive (doi:10.1021/je2002368)

Legend:
[1] = 101.33 kPa, Liquid; for viscosity: Concentric cylinders viscometry; for mass density: Vibrating tube method
[2] = refractive index (Na D-line) (dimensionless); details: 101.33 kPa, Liquid, Standard Abbe refractometry

CCn1cc[n+](C)c1.C[C@H](N)C(=O)[O-] [1-ethyl-3-methylimidazolium L-alaninate]
Details	mass density, [1] [kg/m3]	refractive index, [2]	viscosity, [1] [mPa·s]
293.15 K	1139.2	1.50586	235.36
298.15 K	1136.1	1.5041	171.19
303.15 K	1133	1.50246	126.6
308.15 K	1129.8	1.50072	93.87
313.15 K	1126.6	1.49908	72.02
318.15 K	1123.5	1.49735	56.62
323.15 K	1120.3	1.49568	45.13
328.15 K	1117.2	1.49395	36.56
333.15 K	1114	1.49228	30.1
338.15 K	1110.9	–	25.02
343.15 K	1107.8	–	21.21
348.15 K	1104.7	–	18.05
353.15 K	1101.6	–	15.51

CCn1cc[n+](C)c1.O=C([O-])[C@@H]1CCCN1 [1-ethyl-3-methyl-1H-imidazolium L-prolinate]
Details	mass density, [1] [kg/m3]	refractive index, [2]	viscosity, [1] [mPa·s]
293.15 K	1158.14	1.51523	626.95
298.15 K	1155.08	1.51372	426.12
303.15 K	1152	1.51229	295.17
308.15 K	1148.9	1.51073	210.2
313.15 K	1145.78	1.50924	153.57
318.15 K	1142.64	1.50774	114.27
323.15 K	1139.5	1.50621	87.05
328.15 K	1136.36	1.50454	67.61
333.15 K	1133.22	1.5031	54.04
338.15 K	1130.08	–	43.43
343.15 K	1126.93	–	35.47
348.15 K	1123.79	–	29.36
353.15 K	1120.63	–	24.5

CC[n+]1ccn(C)c1.N[C@@H](CO)C(=O)[O-] [3-ethyl-1-methyl-1H-imidazolium L-serinate]
Details	mass density, [1] [kg/m3]	refractive index, [2]	viscosity, [1] [mPa·s]
293.15 K	1198.3	1.51205	611.87
298.15 K	1195.2	1.51069	410.86
303.15 K	1191.9	1.50932	279.82
308.15 K	1188.6	1.50791	196.7
313.15 K	1185.2	1.50654	142.28
318.15 K	1182	1.50511	105.8
323.15 K	1178.9	1.50372	80.49
328.15 K	1175.8	1.50224	62.48
333.15 K	1172.6	1.50083	49.31
338.15 K	1169.5	–	39.63
343.15 K	1166.3	–	32.36
348.15 K	1162.9	–	26.82
353.15 K	1159.8	–	22.47

CCn1cc[n+](C)c1.NCC(=O)[O-] [1-ethyl-3-methylimidazolium ammonioacetate]
Details	mass density, [1] [kg/m3]	refractive index, [2]	viscosity, [1] [mPa·s]
293.15 K	1158	1.50628	80.37
298.15 K	1154.7	1.50473	61.51
303.15 K	1151.6	1.50313	47.75
308.15 K	1148.5	1.50154	37.79
313.15 K	1145.3	1.49988	30.31
318.15 K	1142.2	1.49827	24.89
323.15 K	1139	1.49657	20.64
328.15 K	1135.8	1.49488	17.33
333.15 K	1132.7	1.49321	14.72
338.15 K	1129.5	–	12.64
343.15 K	1126.3	–	10.94
348.15 K	1123.2	–	9.55
353.15 K	1120.1	–	8.38
